This assay has as its system SNB-19 viability, Alamar Blue fluorescence, 8-48 h. Nature of the assay: cytotoxicity in SNB-19 CNS tumor cells – cell-based, Alamar Blue fluorescence, 8/24/48 h, dry powder, HRAS target identification, dose response (AID 720600). A general note: The colour change of resazurin is a common sign of viable cells or microbes.

Molecules are shown by their SMILES. Inconclusive results are not listed.

Here are results for three compounds from PubChem BioAssay AID720600 (Broad Institute, 2013).

Turning to `C#CCCCC(=O)NCCOCCOCCOc1ccc(N(C(=O)CCl)C(C(=O)NCCc2ccccc2)c2cccs2)cc1Cl` (configuration not stated), the AC50 – broadly, the concentration giving half of the maximal activity seen – runs as follows: (measured here: 24 h treatment) 946 nM; (measured here: 48 h treatment) 2780 nM.
For `CC(C)(C)OC(=O)NCCOCCOCCOc1ccc(N(C(=O)CCl)C(C(=O)NCCc2ccccc2)c2cccs2)cc1Cl` (configuration not stated), in that order: 296 nM and 353 nM.
As for `COc1ccc(N(C(=O)CCl)C(C(=O)NCCc2ccccc2)c2cccs2)cc1Cl` (configuration not stated), the concentration at half-maximal activity (AC50) (measured here: 8 h treatment) stood at 77.1 nM, the AC50 (measured here: 24 h treatment) is 112 nM and the AC50 (measured here: 48 h treatment) came out at 149 nM.
